Experimental data taken from PubChem BioAssay (NCI).
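These data come from cells grown in 96-well plates and exposed to compound for 48 hours at five concentrations. TGI: concentration producing complete growth inhibition.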

Assays:
Assay in all cases: NCI tumour cell line growth inhibition, 48 h
[1] = test system: MCF7 breast
[2] = test system: 786-0 renal
[3] = test system: MDA-N
[4] = test system: UO-31 renal
[5] = test system: EKVX NSCLC
[6] = test system: U251 CNS
[7] = test system: NCI-H522 lung
[8] = test system: CAKI-1 renal
[9] = test system: DU-145 prostate
[10] = test system: SN12C renal
[11] = test system: K-562 leukemia
[12] = test system: RPMI-8226 leukemia
[13] = test system: MOLT-4 leukemia
[14] = test system: HCT-116 colon
[15] = test system: OVCAR-5 ovarian
[16] = test system: SK-MEL-28 melanoma
[17] = test system: T-47D breast
[18] = test system: RXF 393 renal
[19] = test system: OVCAR-3 ovarian
[20] = test system: MALME-3M melanoma
[21] = test system: HS 578T breast
[22] = test system: SK-MEL-5 melanoma
[23] = test system: A498 renal
[24] = test system: HCT-15 colon
[25] = test system: M14 melanoma
[26] = test system: HOP-62 NSCLC
[27] = test system: SNB-19 CNS
[28] = test system: BT-549 breast
[29] = test system: SW-620 colon
[30] = test system: CCRF-CEM leukemia
[31] = test system: A549 NSCLC
[32] = test system: HOP-92 NSCLC
[33] = test system: COLO 205 colon
[34] = test system: SF-268 CNS
[35] = test system: SNB-75 CNS
[36] = test system: UACC-62 melanoma
[37] = test system: HCC-2998 colon
[38] = test system: OVCAR-8 ovarian
[39] = test system: KM12 colon
[40] = test system: SK-OV-3 ovarian
[41] = test system: NCI-H460 lung
[42] = test system: NCI/ADR-RES ovarian
[43] = test system: NCI-H226 lung
[44] = test system: NCI-H23 lung
[45] = test system: OVCAR-4 ovarian
[46] = test system: HT29 colon
[47] = test system: MDA-MB-231 breast
[48] = test system: IGROV1 ovarian
[49] = test system: MDA-MB-435
[50] = test system: ACHN renal
[51] = test system: PC-3 prostate
[52] = test system: SF-295 CNS
[53] = test system: LOX IMVI melanoma
[54] = test system: SF-539 CNS
[55] = test system: HL-60(TB) leukemia
[56] = test system: UACC-257 melanoma
[57] = test system: TK-10 renal
[58] = test system: SK-MEL-2 melanoma

Measured: TGI

CC(C)C1=CC(=O)[C@@](C)(C2[C@H](O)C[C@@]3(C)[C@@H]4CC=C5[C@@H](CC[C@@H](OC6OCC(O)C(O)C6OC6OC(C)C(O)C(O)C6O)C5(C)C)[C@]4(C)C(=O)C[C@]23C)O1 (stereo partly specified)
not listed: [53] | [54] | [55] | [56] | [57] | [58]
> 100 µM: all other assays above

Cn1c(=O)c2c(nc3sc4ccccc4c(=O)n32)n(C)c1=O
not listed: [7] | [20] | [30] | [31]
> 100 µM: all other assays above
